In assay [1] the test system is monoaminergic neurotransmission in VTA and other brain areas. Put plainly: Ex vivo monoamine content (HPLC-EC) in brain areas of alcohol-drinking rats after repeated DAG. Also noted: species or system Rcc Han Wistar rats. An excerpt: (§1) Male and female Rcc Han Wistar rats (8–12 weeks old at arrival; Envigo, Horst, Netherlands) were used for the alcohol drinking and locomotor activity experiments as they drink alcohol to intoxicating levels. For in vivo microdialysis studies male Wistar rats (Charles River, Calco, Italy) were used as they display robust dopamine levels in NAc shell after alcohol injection. […] All rodents were allowed to habituate to the animal facility at least one week before they entered an experiment. During housing (20 °C with 50% humidity) the rodents had free access to water and standard chow (Teklad Rodent Diet; Envigo, Madison, WI, USA). These experiments were approved by the Ethics Committee for Animal Experiments (ethical numbers: 1457/18, 3276/18, 1556/18, 3348/20; Gothenburg, Sweden) and followed the ARRIVE guidelines. The sample sizes of each experiment were based on previous experience in which statistical significance has been detected. The person who conducted the experiments, and analyzed the collected data was aware of the treatment allocation. Only preset exclusion criteria were used when analyzing the data obtained in attempts to exclude confounding factors in analyzing data. In the alcohol drinking experiments leaking bottles and low alcohol consumption (<3.0 g/kg for males; <3.5 g/kg for females) were preset exclusion criteria. The preset exclusion criterion in the ex vivo HPLC-EC, ELISA, and recombinant cell line experiments was contamination of the sample. Misplaced probes, technical difficulties, and damages to the surgery area were preset exclusion criteria for the in vivo microdialysis experiment. Intra-cage male aggression was the preset exclusion criterion for the locomotor activity and CPP experiments. To minimize tentative confounding factors, the order of treatments was stratified, with treatments being mixed for each animal cage and for each apparatus used as well as balancing the alcohol intake between future treatment groups. Although each experiment only was performed once, they were separated over different laboratory days with equal data obtained between sessions.
Individually housed rats had intermittent access to an alcohol (20%) bottle and a water bottle, three 24-h sessions per week, and only water bottles the remaining days. A reversed light/dark cycle was used, and the bottles were changed when the lights went out. First, the rats consumed alcohol for 10 weeks (baseline drinking), where the bottles and food were weighed daily and the body weight weekly. During treatments, the bottles and food were weighed at 4- and/or 24-h and the body weight was measured daily. In the first drinking experiment, the potential of DAG to reduce alcohol consumption was tested and therefore, vehicle or DAG (1 mg/kg) was acutely injected into male (n = 12) or female (n = 12) rats. The second drinking experiment was conducted to establish the effects of lower DAG doses on alcohol intake. Therefore, separate male (n = 18) or female (n = 18) rats, were acutely injected with lower DAG doses (0.5 or 0.25 mg/kg) or vehicle. The third alcohol drinking experiment evaluated the ability of repeated DAG injections to lower alcohol drinking. Therefore, additional male (n = 24) and female (n = 24) rats were injected with either vehicle or DAG (1 mg/kg) at three alcohol-drinking sessions. At the end of the third drinking session, the rats were euthanized and decapitated, and the brains were placed in a brain-slicing matrix. Brain areas central for reward (VTA, NAc shell, NAc core, LDTg, dorsal striatum, hippocampus, paraventricular thalamus, prefrontal cortex, central amygdala) were punched and stored at −80 °C. Each sample was homogenized, and then the monoamine content in the supernatant was analyzed in an HPLC-EC system as described before, allowing tentative determination of brain regions, directly or indirectly, affected by DAG.
The obtained data are normally distributed and with equal variance. […]

Assay [2] relates to male mice. Briefly: Conditioned place preference (rCPP, mCPP). The class given is in vivo, NMRI mice.
Source text: as §1
Alcohol (95%; Solveco AB, Stockholm, Sweden) was either diluted to a 20% solution using tap water (drinking experiment) or to a 15% (w/v) solution with 0.9% NaCl. Alcohol was in the behavioral and neurochemical tests injected (intraperitoneally, IP) 5 min before the test. A dose of 1.75 g/kg was used in male mice as it causes robust locomotor stimulation and induces a CPP [37–39], and 2 g/kg was used for rats as it elevates the dopamine levels in NAc shell. DAG (Tocrise Bioscience, Bristol, UK) was dissolved in 0.9% NaCl in doses (0.25–2 mg/kg) known to reduce food intake and DAG was injected IP). […]

[3] abbreviates: alcohol-drinking female rats, repeated DAG n = 7 vs vehicle n = 9.
Where [4] appears, read: alcohol-drinking male rats, repeated DAG n = 8 vs vehicle n = 7.

With “des-acyl ghrelin (GSSFLSPEHQRVQQRKESKKPPAKLQPR; Ghrelin-28 non-acylated; UniProt Q9UBU3 24-51, looked up) [DAG, non-octanoylated form of ghrelin; purchased from Tocris (printed Tocrise Bioscience), dissolved in 0.9% NaCl]”, in assay [1] (setting [3]), the “ex vivo DOPAC level, VTA” value is given as “did not change the levels of D DOPAC (t14 = 0.41, P = 0.6904)”; the “ex vivo HVA level, VTA” value is on record as “did not change the levels of D DOPAC (t14 = 0.41, P = 0.6904), E HVA (t14 = 0.66, P = 0.5196)”; the “ex vivo dopamine level, VTA” value is given as “did not change the levels of D DOPAC (t14 = 0.41, P = 0.6904), E HVA (t14 = 0.66, P = 0.5196), or F dopamine (t14 = 0.12, P = 0.9080)”. The “dopamine turnover, 5-HIAA, serotonin and serotonin turnover, VTA” value in assay [1] (alcohol-drinking male or female rats, repeated DAG) is reported as “neither affected the dopamine turnover, 5-hydroxy indole acetic acid (5-HIAA), serotonin, nor serotonin turnover”. Further, the “ex vivo noradrenaline level, VTA” value in assay [1] (alcohol-drinking male rats, repeated DAG) was “tended to elevate the ex vivo noradrenaline levels in this area of male rats (Supplementary Fig. 4E, P = 0.0819)”. For the same substance, in assay [1] (setting [4]), the “ex vivo DOPAC level, VTA” value was “increased the ex vivo levels of A DOPAC (t13 = 2.94, P = 0.0116)”; the “ex vivo HVA level, VTA” value was “increased the ex vivo levels of A DOPAC (t13 = 2.94, P = 0.0116) and B HVA (t13 = 3.00, P = 0.0102)”; the “ex vivo dopamine level, VTA” value is reported as “tended to elevate the dopamine levels (t13 = 1.72, P = 0.1091)”. Moreover, the “monoaminergic neurotransmission in other brain areas” value in assay [1] (males and females, repeated DAG, central amygdala, hippocampus, laterodorsal tegmental area, NAc core and shell, prefrontal cortex, paraventricular thalamus, striatum, data not shown) is “Neither in males nor females, DAG altered the monoaminergic neurotransmission”. Also, the “memory of alcohol reward (mCPP)” value in assay [2] (DAG 1 mg/kg at post-conditioning) is given as “did not reduce the memory of alcohol reward (mCPP, t14 = 1.36, P = 0.1955)”. Besides, in assay [2] (DAG 1 mg/kg during conditioning with alcohol), the “reward of alcohol in conditioned place preference (rCPP)” value is on record as “attenuated the reward of alcohol in the conditioned place preference test (rCPP, t12 = 2.69, P = 0.0197)”. The rCPP per se result in assay [2] (DAG 1 mg/kg, only vehicle control instead of alcohol) is “did not influence rCPP (t14 = 0.64, P = 0.5304) per se”. For the same substance, the mCPP per se result in assay [2] (DAG 1 mg/kg, vehicle during conditioning) is on record as “DAG did neither influence locomotor activity, rCPP, mCPP nor accumbal dopamine per se”.

Values taken from article PMC11224403, “Des-acyl ghrelin reduces alcohol intake and alcohol-induced reward in rodents” (Translational Psychiatry, 2024).
